Values quoted from earlier work as cited in US20060018956A1, “Dermal application system for aminolevulinic acid-derivatives” (priority 2002, published 2006).

Settings: fresh ALA solution, approximate physiological value of 8, after just two weeks

NCC(=O)CCC(=O)O [ALA, 5-aminolaevulinic acid]
undecomposed active substance: approx. 10%
